Assay results from patent publication US11406624B2, “Pyrazolopyridine compounds and uses thereof” (Incyte Corporation, priority 2017, dated 2022).

Target: HPK1 (Homo sapiens (Human), UniProt Q92918)
Experiment: HPK1 Kinase Binding Assay
Settings: LanthaScreen tracer 222 binding, active HPK1, one hour incubation at 25° C.
Description: A stock solution of 1 mM test compound was prepared in DMSO. The compound plate was prepared by 3-fold and 11-point serial dilutions. 0.1 μL of the compound in DMSO was transferred from the compound plate to the white 384 well polystyrene plates. The assay buffer contained 50 mM HEPES, pH 7.5, 0.01% Tween-20, 5 mM MgCl2, 0.01% BSA, and 5 mM DTT. 5 μl of 4 nM active HPK1 (SignalChem M23-11G) prepared in the buffer was added to the plate. The enzyme concentration given was based on the given stock concentration reported by the vender. 5 μl of 18 nM tracer 222 (ThermoFisher PV6121) and 4 nM LanthaScreen Eu-Anti GST antibody (ThermoFisher PV5595) were added. After one hour incubation at 25° C., the plates were read on a PHERAstar FS plate reader (BMG Labtech). Ki values were determined.

HPK1, sequence (Q92918 1-346): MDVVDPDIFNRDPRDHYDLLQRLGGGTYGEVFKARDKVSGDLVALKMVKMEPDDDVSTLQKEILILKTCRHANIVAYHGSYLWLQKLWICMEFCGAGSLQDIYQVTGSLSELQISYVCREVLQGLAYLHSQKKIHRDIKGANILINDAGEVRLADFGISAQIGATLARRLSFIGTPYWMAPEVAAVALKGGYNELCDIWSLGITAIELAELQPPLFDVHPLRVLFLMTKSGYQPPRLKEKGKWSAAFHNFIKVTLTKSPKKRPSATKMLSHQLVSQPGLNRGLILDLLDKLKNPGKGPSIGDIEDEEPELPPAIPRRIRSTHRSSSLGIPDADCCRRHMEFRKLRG

Ki | Structure (SMILES)
≤ 100 nM | Cc1ccncc1-c1cc2c(NC(=O)c3ccc(N4CCOCC4)cc3)n[nH]c2cn1 [Example 1, N-(5-(4-methylpyridin-3-yl)-1H-pyrazolo[3,4-c]pyridin-3-yl)-4-morpholinobenzamide]
≤ 100 nM | Cc1ccncc1-c1cc2c(NC(=O)c3ccc(N4CCN(C)CC4)cc3)n[nH]c2cn1 [Example 2, 4-(4-Methylpiperazin-1-yl)-N-(5-(4-methylpyridin-3-yl)-1H-pyrazolo[3,4-c]pyridin-3-yl)benzamide]
≤ 100 nM | CCOC(=O)N1CCN(c2ccc(C(=O)Nc3n[nH]c4cnc(-c5cnccc5C)cc34)cc2)CC1 [Example 3, Ethyl 4-(4-(5-(4-methylpyridin-3-yl)-1H-pyrazolo[3,4-c]pyridin-3-ylcarbamoyl)phenyl)piperazine-1-carboxylate]
≤ 100 nM | COC1CCN(c2ccc(C(=O)Nc3n[nH]c4cnc(-c5cnccc5C)cc34)cc2)CC1 [Example 4, 4-(4-Methoxypiperidin-1-yl)-N-(5-(4-methylpyridin-3-yl)-1H-pyrazolo[3,4-c]pyridin-3-yl)benzamide]
≤ 100 nM | Cc1ccncc1-c1cc2c(NC(=O)c3ccc(N4CCCC(N)C4)cc3)n[nH]c2cn1 (stereo not shown) [Example 5, 4-(3-Aminopiperidin-1-yl)-N-(5-(4-methylpyridin-3-yl)-1H-pyrazolo[3,4-c]pyridin-3-yl)benzamide]
≤ 100 nM | Cc1c(-c2cc3c(NC(=O)c4ccc(N5CCOCC5)cc4)n[nH]c3cn2)cnn1C [Example 6, N-(5-(1,5-dimethyl-1H-pyrazol-4-yl)-1H-pyrazolo[3,4-c]pyridin-3-yl)-4-morpholinobenzamide]
≤ 100 nM | Cc1c(-c2cc3c(NC(=O)c4ccc(N5CCN(C)CC5)cc4)n[nH]c3cn2)cnn1C [Example 7, N-(5-(1,5-dimethyl-1H-pyrazol-4-yl)-1H-pyrazolo[3,4-c]pyridin-3-yl)-4-(4-methylpiperazin-1-yl)benzamide]
≤ 100 nM | CCOC(=O)N1CCN(c2ccc(C(=O)Nc3n[nH]c4cnc(-c5cnn(C)c5C)cc34)cc2)CC1 [Example 8, Ethyl 4-(4-(5-(1,5-dimethyl-1H-pyrazol-4-yl)-1H-pyrazolo[3,4-c]pyridin-3-ylcarbamoyl)phenyl)piperazine-1-carboxylate]
≤ 100 nM | COC1CCN(c2ccc(C(=O)Nc3n[nH]c4cnc(-c5cnn(C)c5C)cc34)cc2)CC1 [Example 9, N-(5-(1,5-dimethyl-1H-pyrazol-4-yl)-1H-pyrazolo[3,4-c]pyridin-3-yl)-4-(4-methoxypiperidin-1-yl)benzamide]
≤ 100 nM | COC1CCCN(c2ccc(C(=O)Nc3n[nH]c4cnc(-c5cnn(C)c5C)cc34)cc2)C1 (stereo not shown) [Example 10, N-(5-(1,5-dimethyl-1H-pyrazol-4-yl)-1H-pyrazolo[3,4-c]pyridin-3-yl)-4-(3-methoxypiperidin-1-yl)benzamide]
≤ 100 nM | CCCNc1ccc(C(=O)Nc2n[nH]c3cnc(-c4cnn(C)c4C)cc23)cc1 [Example 11, N-(5-(1,5-dimethyl-1H-pyrazol-4-yl)-1H-pyrazolo[3,4-c]pyridin-3-yl)-4-(propylamino)benzamide]
≤ 100 nM | COCCNc1ccc(C(=O)Nc2n[nH]c3cnc(-c4cnn(C)c4C)cc23)cc1 [Example 12, N-(5-(1,5-dimethyl-1H-pyrazol-4-yl)-1H-pyrazolo[3,4-c]pyridin-3-yl)-4-(2-methoxyethylamino)benzamide]
≤ 100 nM | Cc1c(-c2cc3c(NC(=O)c4ccc(N5CCC(F)(F)C5)cc4)n[nH]c3cn2)cnn1C [Example 13, 4-(3,3-Difluoropyrrolidin-1-yl)-N-(5-(1,5-dimethyl-1H-pyrazol-4-yl)-1H-pyrazolo[3,4-c]pyridin-3-yl)benzamide]
≤ 100 nM | COc1ccncc1-c1cc2c(NC(=O)c3ccc(N4CCN(C)CC4)cc3)n[nH]c2cn1 [Example 14, N-(5-(4-methoxypyridin-3-yl)-1H-pyrazolo[3,4-c]pyridin-3-yl)-4-(4-methylpiperazin-1-yl)benzamide]
≤ 100 nM | Cc1ccncc1-c1cc2c(C(=O)Nc3ccc(N4CCN(C)CC4)cc3)n[nH]c2cn1 [Example 15, N-(4-(4-methylpiperazin-1-yl)phenyl)-5-(4-methylpyridin-3-yl)-1H-pyrazolo[3,4-c]pyridine-3-carboxamide]
≤ 100 nM | COc1ccncc1-c1cc2c(C(=O)Nc3ccc(N4CCN(C)CC4)cc3)n[nH]c2cn1 [Example 16, 5-(4-Methoxypyridin-3-yl)-N-(4-(4-methylpiperazin-1-yl)phenyl)-1H-pyrazolo[3,4-c]pyridine-3-carboxamide]
